Molecules are shown by their SMILES. Where a name gives a salt, the structure may show the parent alone. Bounds are passed on as bounds.

What is called inhibition is how much of the control response was suppressed.

This experiment concerns the target T1, untagged HECT of NEDD4 wild-type (WT) (E3 ligase) (Homo sapiens, UniProt P46934).
T1 construct: untagged HECT of NEDD4 wild-type (WT) (E3 ligase); made in house
T1 sequence (P46934 519-900 isoform P46934-4 limits assumed): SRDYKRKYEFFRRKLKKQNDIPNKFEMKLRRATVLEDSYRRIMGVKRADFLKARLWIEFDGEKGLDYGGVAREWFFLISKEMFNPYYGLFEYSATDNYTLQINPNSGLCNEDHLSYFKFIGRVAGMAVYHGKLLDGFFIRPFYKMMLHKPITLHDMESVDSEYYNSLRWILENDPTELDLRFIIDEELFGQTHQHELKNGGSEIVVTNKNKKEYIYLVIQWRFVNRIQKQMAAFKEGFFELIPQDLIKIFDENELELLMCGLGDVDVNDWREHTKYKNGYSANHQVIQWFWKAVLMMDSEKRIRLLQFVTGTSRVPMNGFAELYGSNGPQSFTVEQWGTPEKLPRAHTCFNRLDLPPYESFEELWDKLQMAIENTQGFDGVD
Kind of experiment: In vitro ubiquitination assay TR-FRET based (self-ubiquitination of NEDD4). The class given is biochemical. Conditions: at 11 μM; pre-incubated for 1 hour; AUC of 120 minutes kinetic; read-out: percentages of inhibition (NEDD4). From the text:
FIG. 1: TR-FRET kinetic assay performed with compound 12. […] Reactions were initiated with the addition of ATP. As labeled ubiquitin molecules become incorporated into chains they come into close proximity, resulting in energy transfer and increased signal to background detection. The activity of the enzyme is continuously and real time detected and it is expressed as % of signal/background during the time.
In order to quantitatively measure the self-ubiquitination process of the E3 HECT ligase NEDD4 the inventors employed a TR-FRET based assay. TR-FRET technology exploits the long-lasting emission of lanthanide fluorescence to interpose a short time-delay between FRET donor excitation and emission. This phenomenon enables to isolate real fluorescent signals from short-lived background emissions, thus reducing possible interference from compounds.
In the present study, elongation of the ubiqutin chain by NEDD4 is measured by adding bacterially expressed E1, His-tagged UBE2D3 (E2) and untagged HECT of NEDD4 wild-type (WT) (E3 ligase) (named in FIG. 1 as WT) enzymes to a mixture of Eu-cryptate ubiquitin, Cy5-ubiquitin and wild-type ubiquitin, combined in a ratio optimized for TR-FRET based conjugation (100×TRF-Ubiquitin Mix, SBB-TR0051). […] Bacterially expressed E1, His-tagged UBE2D3 (E2), untagged HECT NEDD4 (E3 ligase) WT and NEDD4 C/A enzymes were produced and purified as reported in E. Maspero et al. Methods Mol Biol. 1449:153-60 (2016).
Enzymatic incorporation of the labeled TRF-Ubiquitin mix into chains leads to an increase in fluorescence emission at 665 nm (emission of the acceptor Cy5-Ubiquitin, Emacceptor) and decrease at emission wavelength 620 nm (emission of the donor Eu-cryptate Ubiquitin, Emdonor).
The assay was performed in a 384-well plate format (Optiplate, Perkin Elmer, #6007290) on an automated liquid-handler (Hamilton STAR, Hamilton Robotics, Switzerland).
All compounds were dissolved in 100% DMSO and serially diluted in 96-well plates (from 100 μM to 0.005 μM).
Briefly, all reagents were thawed and kept on ice. A master mix containing E1, E2, E3 and TRF-Ubiquitin Mix (SBB-TR0051) diluted in the assay buffer (Tris-HCl pH 7.6 25 mM, NaCl 100 mM, MgCl2 5 mM and Tween 0.01%) is prepared and 50 μl/well is dispensed in a 384 well plate. 3 μl of compounds dissolved in DMSO in the above-indicated concentration range were added and pre-incubated for 1 hour. Final E1, E2 and E3 concentrations in the assay buffer (Tris-HCl pH 7.6 25 mM, NaCl 100 mM, MgCl2 5 mM and Tween 0.01%) were 30, 350 and 50 nanomolars, respectively. The reaction was initiated with the addition of ATP (22 μl of 2 mM ATP, JenaBioscience, NU-1010) and was allowed to proceed for 120 minutes, measuring fluorescence emission at 665 nm and 620 nm in real-time on an EnSpire microplate reader (Perkin Elmer).
Kinetic raw data were analyzed by Area Under the Curve (AUC) method using Prism GraphPad software.
% signal/background corresponds to the following equation: (Experimental signal−Background signal)/Background signal×100%
Experimental signal corresponds to the signal obtained by the enzymatic reaction in presence of the vehicle (DMSO) and/or the different compound concentrations. Background signal corresponds to the signal obtained by the enzymatic reaction in absence of ATP.
The relative potency of the compounds was evaluated by dose-response curves following the enzymatic reaction of HECT NEDD4 WT in real time for 120 minutes.
Percentage of inhibition is then determined by the equation: % inhibition=100×[1−(X)/(MAX)],
where MAX correspond to AUC of the vehicle (DMSO) treated enzyme, and X corresponds to the AUC of the compound treated enzyme.
For orientation: TR-FRET usually uses a lanthanide donor and a delayed reading to cut background.
In the case of `CCOC(=O)/C=C/CNCCCN1c2ccccc2COc2ccc(C(F)(F)F)cc21` [Compound 3, Ethyl (E)-4-{3-[7-(trifluoromethyl)dibenzo[b,e][1,4]oxazepin-5(11H)-yl]propylamino}but-2-enoate maleate], the inhibition at 11 µM lay in the range of 30 to 50%.
Regarding `CCOC(=O)/C=C/CNCCCN1c2ccccc2CCc2ccc(Cl)cc21` [Compound 4, Ethyl (E)-4-[3-(3-chloro-10,11-dihydro-5H-dibenzo[b,f]azepin-5-yl)propylamino]but-2-enoate fumarate], the inhibition at 11 µM is more than 50%.
The figure for `O=C(/C=C/CNCCCN1c2ccccc2CCc2ccc(Cl)cc21)Nc1ccccc1` [Compound 21, (E)-4-{[3-(3-chloro-10,11-dihydro-5H-dibenzo[b,f]azepin-5-yl)propyl]amino}-N-phenyl-but-2-enamide hydrochloride] is less than 30%.
Consider `O=C(O)/C=C/CNCCCN1c2ccccc2CCc2ccc(Cl)cc21` [Compound 16, (E)-4-[3-(3-chloro-10,11-dihydro-5H-dibenzo[b,f]azepin-5-yl)propylamino]but-2-enoic acid 2,2,2-trifluoroacetate], for which the inhibition at 11 µM is less than 30%.
For the compound `CCOC(=O)/C=C/CNCCCCN1c2ccc(OCc3ccccc3)cc2CCc2ccc(Cl)cc21` [Compound 101, Ethyl (E)-4-[4-(2-benzyloxy-7-chloro-10,11-dihydro-dibenzo[b,f]azepin-5-yl)-butylamino]-but-2-enoate maleate], the inhibition at 11 µM is less than 30%.
As to `CCOC(=O)/C=C/CNCCCN1c2ccccc2COc2ccc(Cl)cc21` [Compound 2, Ethyl (E)-4-[3-(7-chlorodibenzo[b,e][1,4]oxazepin-5(11H)-yl)propylamino]but-2-enoate maleate], the inhibition at 11 µM is more than 50%.
Turning to `O=C(/C=C/CNCCCCN1c2ccccc2CCc2ccc(Cl)cc21)NOCc1ccccc1` [Compound 79, (E)-4-[4-(3-chloro-10,11-dihydro-5H-dibenzo[b,f]azepin-5-yl)butylamino]-N-benzyloxy-but-2-enamide maleate], the inhibition at 11 µM was more than 50%.
The figure for `CCONC(=O)/C=C/CNCCCCN1c2ccccc2CCc2ccc(Cl)cc21` [Compound 80, (E)-4-[4-(3-chloro-10,11-dihydro-5H-dibenzo[b,f]azepin-5-yl)butylamino]-N-ethoxy-but-2-enamide maleate] is more than 50%.
The figure for `CCOC(=O)/C=C/CNCCCCN1c2cc(Cl)ccc2CCc2cnn(C)c21` [Compound 43, Ethyl (E)-4-{[4-(8-chloro-1-methyl-4,5-dihydropyrazolo-[3,4-b][1]-benzazepin-10(1H)-yl)butyl]amino}but-2-enoate maleate] is more than 50%.
The value for `CCOC(=O)/C=C/CNCCCCN1c2cc(Cl)ccc2NC(=O)c2ccccc21` [Compound 41, Ethyl (E)-4-{[4-(7-chloro-11-oxo-10,11-dihydro-5H-dibenzo[b,e][1,4]diazepin-5-yl)butyl]amino}but-2-enoate maleate] was more than 50%.
Turning to `COCCOC(=O)/C=C/CNCCCCN1c2ccccc2CCc2ccc(Cl)cc21` [Compound 102, 2-methoxy-ethyl (E)-4-[4-(3-chloro-10,11-dihydro-dibenzo[b,f]azepin-5-yl)-butylamino]-but-2-enoate maleate], the inhibition at 11 µM is more than 50%.
`N#C/C=C/CNCCCCN1c2ccccc2CCc2ccc(Cl)cc21` [Compound 71, (E)-4-[4-(3-chloro-10,11-dihydro-5H-dibenzo[b,f]azepin-5-yl)butylamino]but-2-enenitrile maleate]: the inhibition at 11 µM was more than 50%.
The value for `N#C/C=C/CNCCCN1c2ccccc2CCc2ccc(Cl)cc21` [Compound 22, (E)-4-{[3-(3-chloro-10,11-dihydro-5H-dibenzo[b,f]azepin-5-yl)propyl]amino}but-2-enenitrile hydrochloride] was more than 50%; that for `NC(=O)/C=C/CNCCCN1c2ccccc2CCc2ccc(Cl)cc21` [Compound 18, (E)-4-{[3-(3-chloro-10,11-dihydro-5H-dibenzo[b,f]azepin-5-yl)propyl]amino}but-2-enamide hydrochloride] was less than 30%.
Turning to `CCOC(=O)/C=C/CNCCCCN1c2ccccc2CCc2cc(O)c(Cl)cc21` [Compound 40, Ethyl (E)-4-[4-(3-Chloro-2-hydroxy-10,11-dihydro-dibenzo[b,f]azepin-5-yl)-butylamino]-but-2-enoate maleate], the inhibition at 11 µM was more than 50%.
In the case of `CON(C)C(=O)/C=C/CN(C)CCCCN1c2cc(Cl)ccc2C(=O)N(Cc2ccccc2)c2ccccc21` [Compound 59, (E)-4-{[4-(10-Benzyl-3-chloro-11-oxo-10,11-dihydro-5H-dibenzo[b,e][1,4]diazepin-5-yl)butyl](methyl)amino}-N-methoxy-N-methyl-but-2-enamide maleate], the inhibition at 11 µM is more than 50%.
For the compound `COC(=O)/C=C/CN(C)CCCN1c2ccccc2CCc2ccc(Cl)cc21` [Compound 1, Methyl (E)-4-[3-(3-chloro-10,11-dihydro-5H-dibenzo[b,f]azepin-5-yl)propyl-methyl-amino]but-2-enoate hydrochloride], the inhibition at 11 µM lay within 30 to 50%.
In the case of `CCOC(=O)/C=C/CNCCCCN1c2ccc(OCCOCCOC)cc2CCc2ccc(Cl)cc21` [Compound 98, Ethyl (E)-4-(4-{7-chloro-2-[2-(2-methoxy-ethoxy)-ethoxy]-10,11-dihydro-5H-dibenzo[b,f]azepin-5-yl}-butylamino)-but-2-enoate maleate], the inhibition at 11 µM is more than 50%.
Regarding `COC(=O)/C=C/CNCCCCN1c2ccccc2CCc2ccc(Cl)cc21` [Compound 62, Methyl (E)-4-[4-(3-chloro-10,11-dihydro-5H-dibenzo[b,f]azepin-5-yl)butylamino]but-2-enoate maleate], the inhibition at 11 µM is more than 50%.
For `CCOC(=O)/C=C/CNCC(O)CN1c2ccccc2CCc2ccc(Cl)cc21` (centres unmarked) [Compound 34, Ethyl (E)-4-{[2-hydroxy-3-(3-chloro-10,11-dihydro-5H-dibenzo[b,f]azepin-5-yl)]propylamino} but-2-enoate], the inhibition at 11 µM was more than 50%.
Regarding `CCOC(=O)/C=C/CNCCCN1c2ccccc2CCc2ccc([N+](=O)[O-])cc21` [Compound 14, Ethyl (E)-4-[3-(3-nitro-10,11-dihydro-5H-dibenzo[b,f]azepin-5-yl)propylamino]but-2-enoate maleate], the inhibition at 11 µM is more than 50%.
Turning to `CCOC(=O)/C=C/CNCCCN1c2ccccc2C(=O)N(CCCO)c2ccc(Cl)cc21` [Compound 52, Ethyl (E)-4-({3-[7-chloro-10-(3-hydroxypropyl)-11-oxo-10,11-dihydro-5H-dibenzo[b,e][1,4]diazepin-5-yl]propyl}amino)but-2-enoate maleate], the inhibition at 11 µM fell in the range of 30 to 50%.
Turning to `CNC(=O)/C=C/CNCCCCN1c2ccccc2CCc2ccc(Cl)cc21` [Compound 66, (E)-4-{[4-(3-chloro-10,11-dihydro-5H-dibenzo[b,f]azepin-5-yl)butyl]amino}-N-methyl-but-2-enamide hydrochloride], the inhibition at 11 µM fell in the range of 30 to 50%.
